Data: US20240374631A1, “A COMPOSITION FOR IMPROVING GUT MICROBIOTA, BEHAVIOURAL PATTERN, ALPHA-SYNUCLEIN LEVELS, SLEEP PATTERN AND/OR SERUM MELATONIN” (GN Corporation Co Ltd, priority 2021, published 2024)

Tested on: gut microbiota
Assay: Gut microbiome analysis (16S rRNA sequencing of fecal samples) in STAM model of NASH
Format: in vivo, C57BL/6J mice
Source text: The study is reported in accordance with Animal Research: Reporting of In Vivo Experiments (ARRIVE) guidelines. C57BL/6J mice were obtained from Japan SLC, Inc. (Japan). All animals used in this study were cared for under the following guidelines: Act on Welfare and Management of Animals (Ministry of the Environment, Japan, Act No. 105 of Oct. 1, 1973), standards relating to the care and management of laboratory animals and relief of pain (Notice No. 88 of the Ministry of the Environment, Japan, Apr. 28, 2006) and the guidelines for proper conduct of animal experiments (Science Council of Japan, Jun. 1, 2006). Protocol approvals were obtained from SMC Laboratories, Japan's IACUC (Study reference no: […] Mice were maintained in a specific pathogen-free (SPF) facility under controlled conditions of temperature (23±3° C.), humidity (50±20%), lighting (12-hour artificial light and dark cycles; light from 8:00 to 20:00) and air exchange. The STAM model of NASH was induced as previously described [D10]. Mice were given a single subcutaneous injection of 200 μg streptozotocin (STZ, Sigma-Aldrich, USA) solution 2 days after birth and fed with a high-fat diet (HFD, 57 kcal % fat, Cat #HFD32, CLEA Japan, Inc., Japan) from 4-9 weeks of age. All mice develop liver steatosis and diabetes and at […] mice had established steatohepatitis, histologically. Studygroups: There were five study groups, described below. Eight mice were included in each study group. Eight NASH mice were orally administered vehicle supplemented with AFO-202 Beta Glucan at a dose of 1 mg/kg in a volume of 5 mL/kg once daily from 6 to 9 weeks of age. Eight NASH mice were orally administered vehicle supplemented with Telmisartan at a dose of 10 mg/kg once daily from 6 to 9 weeks of age. Frequency: Fecal samples were collected at the 6 weeks of age (before administration) and 9 weeks of age (before sacrifice). Procedure: At 6 weeks of age, fecal samples were collected from each mouse by clean catch method. […] A sterile petri dish was placed on the bench. Gently massage the abdomen, position the bottom of mouse over a fresh petri dish, and collect 1-2 fecal pellets. At sacrifice, fecal samples were aseptically collected from cecum. The tubes with feces were placed on ice immediately. These tubes were snap frozen in liquid nitrogen and stored at -80° C. for shipping. In this analysis, the 16S rRNA sequence data acquired by the next-generation sequencer from the fecal […] was used to perform community analysis using the QIIME2 program for microbial community analysis. The raw read data in FASTQ format output from the next-generation sequencer was trimmed to remove adapter sequences and low QV regions that may be included in the data. Cutadapt was used to remove adapter sequences from DNA sequencing reads. Trimmomatic was used as read trimming tool for Illumina NGS data. The adapter sequence was trimmed using the adapter trimming program “cutadapt” if the Trimming of the region at the end of the read sequence overlapped the corresponding sequence by at least one base (mismatch tolerance: 20%). When reads containing N were present in at least one of Read1 and Read2, both Read1 and Read2 were removed. Trimming of low QV regions was performed on the read data after processing using the QV trimming program “Trimmomatic” under the following conditions. The window of 20 bases is slid from the 5' side, and the area where the average QV is less than 20 is trimmed. After trimming, only the reads with more than 50 bases remaining in both Read1 and Read2 were taken as output. The microbial community analysis based on 16S rRNA sequence was performed on the sequence data trimmed in the previous section using the microbial community analysis program “QIIME2”. The annotation program “sklearn” included in QIIME2 is used to annotate the ASV (OTU) sequences. […]

SMILES: CCCc1nc2c(C)cc(-c3nc4ccccc4n3C)cc2n1Cc1ccc(-c2ccccc2C(=O)O)cc1 [Telmisartan]
- Abundance: Family Erysipelotrichaceae, Genus —, Species — (post-intervention, table row r426): 0
- Abundance: Family Deferribacteraceae, Genus Mucispirillum, Species schaedleri (post-intervention, table row r427): 0
- Abundance: Family Methylobacteriaceae, Genus Methylobacterium, Species Other (post-intervention, table row r428): 0
- Abundance: Family Methanobacteriaceae, Genus Methanobrevibacter, Species — (post-intervention, table row r429): 0
- Abundance: Family Lachnospiraceae, Genus Other, Species Other (post-intervention, table row r431): 0
- Abundance: Family Lachnospiraceae, Genus Dorea, Species — (post-intervention, table row r432): 0
- Abundance: Family Lachnospiraceae, Genus Dorea, Species — (post-intervention, table row r433): 0
- Abundance: Family Lachnospiraceae, Genus —, Species — (post-intervention, table row r434): 0
- Abundance: Family Erysipelotrichaceae, Genus —, Species — (post-intervention, table row r435): 0
- Abundance: Family Other, Genus Other, Species Other (post-intervention, table row r437): 0
- Abundance: Family Ruminococcaceae, Genus Ruminococcus, Species — (post-intervention, table row r438): 11
- Abundance: Family Lachnospiraceae, Genus Other, Species Other (post-intervention, table row r439): 0
- Abundance: Family Erysipelotrichaceae, Genus Clostridum, Species cocleatum (post-intervention, table row r440): 0
- Abundance: Family Clostridiaceae, Genus —, Species — (post-intervention, table row r441): 0
- Abundance: Family S24-7, Genus —, Species — (post-intervention, table row r442): 0
- Abundance: Family Ruminococcaceae, Genus Oscillospira, Species — (post-intervention, table row r443): 10
- Abundance: Family Erysipelotrichaceae, Genus —, Species — (post-intervention, table row r446): 9
- Abundance: Family Streptococcaceae, Genus —, Species — (post-intervention, table row r447): 0
- Abundance: Family Erysipelotrichaceae, Genus —, Species — (post-intervention, table row r448): 0
- Abundance: Family Turicibacteraceae, Genus Turicibacter, Species — (post-intervention, table row r449): 0
- Abundance: Family S24-7, Genus —, Species — (post-intervention, table row r450): 0
- Abundance: Family Ruminococcaceae, Genus Oscillospira, Species — (post-intervention, table row r451): 0
- Abundance: Family Lachnospiraceae, Genus —, Species — (post-intervention, table row r452): 0
- Abundance: Family Erysipelotrichaceae, Genus —, Species — (post-intervention, table row r454): 0
- Abundance: Family Ruminococcaceae, Genus Ruminococcus, Species — (post-intervention, table row r455): 7
- Abundance: Family Moraxellaceae, Genus Psychrobacter, Species Other (post-intervention, table row r456): 0
- Abundance: Family Paenibacillaceae, Genus Other, Species Other (post-intervention, table row r457): 0
- Abundance: Family Lachnospiraceae, Genus Coprococcus, Species — (post-intervention, table row r458): 0
- Abundance: Family Bacillaceae, Genus Bacillus, Species — (post-intervention, table row r459): 0
- Abundance: Family Enterococcaceae, Genus Vagococcus, Species — (post-intervention, table row r460): 0
- Abundance: Family Lachnospiraceae, Genus —, Species — (post-intervention, table row r462): 0
- Abundance: Family Ruminococcaceae, Genus Oscillospira, Species — (post-intervention, table row r466): 0
- Abundance: Family Erysipelotrichaceae, Genus —, Species — (post-intervention, table row r468): 0
- Abundance: Family Other, Genus Other, Species Other (post-intervention, table row r469): 4
- Abundance: Family Clostridiaceae, Genus Clostridium, Species Other (post-intervention, table row r470): 0
- Abundance: Family Ruminococcaceae, Genus —, Species — (post-intervention, table row r473): 0
- Abundance: Family Deferribacteraceae, Genus Mucispirillum, Species schaedleri (post-intervention, table row r474): 0
- Abundance: Family Turicibacteraceae, Genus Turicibacter, Species — (post-intervention, table row r475): 0
- Abundance: Family [Mogibacteriaceae], Genus —, Species — (post-intervention, table row r478): 0
- Abundance: Family Lachnospiraceae, Genus Dorea, Species longicateria (post-intervention, table row r480): 0
- Abundance: Family Ruminococcaceae, Genus —, Species — (post-intervention, table row r481): 0
- Abundance: Family Lachnospiraceae, Genus —, Species — (post-intervention, table row r482): 0
- Abundance Erysipelotrichaceae/Allobaculum/— (post, line r8): 622
- Abundance Turicibacteraceae/Turicibacter/— (post, line r9): 786
- Abundance Desulfovibrionaceae/—/— (post, line r10): 6012
- Abundance Clostridiaceae/Other/Other (post, line r11): 723
- Abundance Lactobacillaceae/Lactobacillus/— (post, line r12): 254
- Abundance Streptococcaceae/Lactococeus/— (post, line r13): 1948
- Abundance Bacteroidaceae/Bacteroides/— (post, line r14): 8412
- Abundance [Paraprevotellaceae]/[Prevotella]/— (post, line r15): 7582
- Abundance —/—/— (post, line r16): 6029
- Abundance Deferribacteraceae/Mucispirillum/schaedleri (post, line r17): 1921
- Abundance Bacteroidaceae/Bacteroides/acidifaciens (post, line r18): 2571
- Abundance —/—/— (post, line r19): 2764
- Abundance Verrucomicrobiaceae/Akkermansia/muciniphila (post, line r20): 320
- Abundance Enterobacteriaceae/Other/Other (post, line r22): 40
- Abundance Lactobacillaceae/Lactobacillus/— (post, line r23): 513
- Abundance S24-7/—/— (post, line r24): 411
- Abundance Lachnospiraceae/—/— (post, line r25): 1545
- Abundance Peptostreptocpccaceae/—/— (post, line r26): 181
- Abundance Lachnospiraceae/[Ruminococcus]/gnavus (post, line r27): 898
- Abundance Lachnospiraceae/Coprococeus/— (post, line r28): 1468
- Abundance Bifidobacteriaceae/Bifidobacterium/pseudolongum (post, line r29): 111
- Abundance Enterobacteriaceae/Proteus/— (post, line r30): 1153
- Abundance Lactobacillaceae/Lactobacillus/Other (post, line r31): 111
- Abundance S24-7/—/— (post, line r32): 329
- Abundance Porphyromonadaceae/Parabacteroides/distasonis (post, line r33): 1437
- Abundance Clostridiaceae/—/— (post, line r34): 79
- Abundance —/—/— (post, line r35): 536
- Abundance Desulfovibrionaceae/Desulfovibrio/— (post, line r36): 503
- Abundance S24-7/—/— (post, line r37): 271
- Abundance Coriobacteriaceae/Adlercreutzia/— (post, line r38): 135
- Abundance S24-7/—/— (post, line r39): 527
- Abundance Erysipelotrichaceae/Clostridium/cocleatum (post, line r40): 696
- Abundance Ruminococcaceae/Ruminococcus/— (post, line r41): 266
- Abundance Lachnospiraceae/Other/Other (post, line r43): 436
- Abundance Lachnospiraceae/[Ruminococcus]/gnavus (post, line r44): 87
- Abundance Turicibacteraceae/Turicibacter/— (post, line r45): 0
- Abundance Lachnospiraceae/—/— (post, line r46): 253
- Abundance Bacteroidaceae/Bacteroides/— (post, line r47): 2042
- Abundance Ruminococcaceae/Oscillospira/— (post, line r48): 621
- Abundance Clostridiaceae/Other/Other (post, line r49): 70
- Abundance Lachnospiraceae/Roseburia/— (post, line r50): 927
- Abundance Lachnospiraceae/—/— (post, line r51): 698
- Abundance S24-7/—/— (post, line r52): 104
- Abundance Lachnospiraceae/[Ruminococcus]/gnavus (post, line r53): 126
- Abundance Lachnospiraceae/Coprococcus/— (post, line r56): 562
- Abundance S24-7/—/— (post, line r57): 144
- Abundance S24-7/—/— (post, line r58): 410
- Abundance Lachnospiraceae/Other/Other (post, line r60): 245
- Abundance Lachnospiraceae/[Ruminococcus]/gnavus (post, line r61): 686
- Abundance Erysipelotrichaceae/Allobaculum/— (post, line r62): 0
- Abundance Desulfovibrionaceae/Desulfovibrio/C21_c20 (post, line r63): 43
- Abundance S24-7/—/— (post, line r64): 152
- Abundance Streptococcaceae/Lactococcus/garvieae (post, line r66): 8
- Abundance Enterobacteriaceae/Proteus/— (post, line r68): 386
- Abundance Lachnospiraceae/—/— (post, line r69): 786
- Abundance S24-7/—/— (post, line r70): 74
- Abundance Lachnospiraceae/[Ruminococcus]/gnavus (post, line r71): 331
- Abundance Clostridiaceae/Clostridium/Other (post, line r73): 0
- Abundance Lachnospiraceae/—/— (post, line r74): 15
- Abundance Clostridiaceae/Other/Other (post, line r75): 49
- Abundance S24-7/—/— (post, line r78): 101
